Laboratory results reported in US20230406843A1, “Progranulin Modulators and Methods of Using the Same” (ARKUDA THERAPEUTICS, priority 2020, published 2023).

Test system: progranulin
Assay: Progranulin induction cellular assay (ELISA of secreted mouse PGRN)
Assay type: cell-based
Conditions: progranulin induction assay; mouse pMG, primary cortical neurons and BV-2 cell lines named, cell type not given; ELISA-based readout; read-out: EC50
How it was run: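 Secreted mouse PGRN in culture medium is measured by ELISA. Cells tested are BV-2, primary cortical neurons and primary microglia. BV-2 cells are plated a day ahead, allowed 1 h to attach, then incubated 16 h.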

Row | EC50 [nM] | SMILES
1 | 324 | N[C@H]1CO[C@@H](C(=O)N2CCc3ccccc3[C@@H]2c2ccc(F)cc2)C[C@H]1O [Compound 5065, ((2R,4R,5S)-5-amino-4-hydroxytetrahydro-2H-pyran-2-yl)((S)-1-(4-fluorophenyl)-3,4-dihydroisoquinolin-2(1H)-yl)methanone]
2 | 376 | N[C@@H]1C[C@@H](C(=O)N2CCc3ccccc3[C@@H]2c2ccc(F)cc2)OC[C@H]1O [Compound 5068, ((2S,4R,5S)-4-amino-5-hydroxytetrahydro-2H-pyran-2-yl)((S)-1-(4-fluorophenyl)-3,4-dihydroisoquinolin-2(1H)-yl)methanone]
3 | 142 | N[C@H]1C[C@H](C(=O)N2CCc3ccccc3[C@@H]2c2ccc(F)cc2)OC[C@@H]1F [Compound 5069, ((2R,4S,5R)-4-amino-5-fluorotetrahydro-2H-pyran-2-yl)((S)-1-(4-fluorophenyl)-3,4-dihydroisoquinolin-2(1H)-yl)methanone]
4 | 153 | N[C@H]1CO[C@@H](C(=O)N2CCc3ccccc3[C@@H]2c2ccc(F)cc2)C[C@@H]1O [Compound 5070, ((2R,4S,5S)-5-amino-4-hydroxytetrahydro-2H-pyran-2-yl)((S)-1-(4-fluorophenyl)-3,4-dihydroisoquinolin-2(1H)-yl)methanone]
5 | 81 | N[C@@H]1CO[C@H](C(=O)N2CCc3ccccc3[C@@H]2c2ccc(F)cc2)C[C@H]1O [Compound 5072, ((2S,4R,5R)-5-amino-4-hydroxytetrahydro-2H-pyran-2-yl)((S)-1-(4-fluorophenyl)-3,4-dihydroisoquinolin-2(1H)-yl)methanone]
6 | 159 | CO[C@H]1CO[C@@H](C(=O)N2CCc3ccccc3[C@@H]2c2ccc(F)cc2)C[C@H]1N [Compound 5073, ((2R,4R,5R)-4-amino-5-methoxytetrahydro-2H-pyran-2-yl)((S)-1-(4-fluorophenyl)-3,4-dihydroisoquinolin-2(1H)-yl)methanone]
7 | 230 | N[C@@H]1C[C@H](C(=O)N2CCc3ccccc3[C@@H]2c2ccc(F)cc2)OC[C@@H]1O [Compound 5074, ((2R,4R,5R)-4-amino-5-hydroxytetrahydro-2H-pyran-2-yl)((S)-1-(4-fluorophenyl)-3,4-dihydroisoquinolin-2(1H)-yl)methanone]
8 | 529 | N[C@H]1CO[C@@H](C(=O)N2CCc3ccccc3[C@@H]2c2ccc(F)cc2)C[C@H]1F [Compound 5075, ((2R,4R,5S)-5-amino-4-fluorotetrahydro-2H-pyran-2-yl)((S)-1-(4-fluorophenyl)-3,4-dihydroisoquinolin-2(1H)-yl)methanone]
9 | 321 | C[C@H]1C[C@@H](C(=O)N2CCc3ccccc3[C@@H]2c2ccc(F)cc2)OC[C@@H]1N [Compound 5076, ((2S,4S,5R)-5-amino-4-methyltetrahydro-2H-pyran-2-yl)((S)-1-(4-fluorophenyl)-3,4-dihydroisoquinolin-2(1H)-yl)methanone]
10 | 3 | CO[C@H]1CO[C@@H](C(=O)N2CCc3ccccc3[C@@H]2c2ccc(F)cc2)C[C@@H]1N [Compound 5077, ((2R,4S,5R)-4-amino-5-methoxytetrahydro-2H-pyran-2-yl)((S)-1-(4-fluorophenyl)-3,4-dihydroisoquinolin-2(1H)-yl)methanone]
11 | 1 | CCO[C@H]1CO[C@@H](C(=O)N2CCc3ccccc3[C@@H]2c2ccc(F)cc2)C[C@@H]1N [Compound 5078, ((2R,4S,5R)-4-amino-5-ethoxytetrahydro-2H-pyran-2-yl)((S)-1-(4-fluorophenyl)-3,4-dihydroisoquinolin-2(1H)-yl)methanone]
12 | > 10000 | O=C1N[C@H]2C[C@H](C(=O)N3CCc4ccccc4[C@@H]3c3ccc(F)cc3)OC[C@H]2O1 [Compound 5079, (3aS,6R,7aS)-6-((S)-1-(4-fluorophenyl)-1,2,3,4-tetrahydroisoquinoline-2-carbonyl)hexahydro-2H-pyrano[4,3-d]oxazol-2-one]
